Measured values as given in ChEMBL document CHEMBL3774345, “Synthesis of new diarylamides with pyrimidinyl pyridine scaffold and evaluation of their anti-proliferative effect on cancer cell lines” (Bioorg Med Chem Lett, 2016).

Key:
Type in all cases: functional
HT-29 = experiment: Cytotoxicity against human HT-29 cells after 24 hrs by SRB assay; details: HT-29, 24 h
[1] = Cytotoxicity against human OVCAR5 cells assessed as cell growth at 10^-5 M after 24 hrs by SRB assay; details: OVCAR-5, 24 h, read-out: Activity
NCI-H226 = experiment: Cytotoxicity against human NCI-H226 cells assessed as cell growth at 10^-5 M after 24 hrs by SRB assay; details: NCI-H226, 24 h, read-out: Activity
T47D [2] = experiment: Cytotoxicity against human T47D cells assessed as cell growth at 10^-8 M after 24 hrs by SRB assay; details: read-out: Activity
[3] = Cytotoxicity against human RXF393 cells assessed as cell growth at 10^-6 M after 24 hrs by SRB assay; details: RXF 393, 24 h, read-out: Activity
CCRF-CEM = experiment: Cytotoxicity against human CCRF-CEM cells assessed as cell growth at 10^-4 M after 24 hrs by SRB assay; details: read-out: Activity
[4] = Cytotoxicity against human SNB75 cells assessed as cell growth at 10^-8 M after 24 hrs by SRB assay; details: SNB-75, 24 h, read-out: Activity
[5] = Cytotoxicity against human LOXIMVI cells assessed as cell growth at 10^-8 M after 24 hrs by SRB assay; details: LOX IMVI, read-out: Activity
Malme-3M = experiment: Cytotoxicity against human MALME-3M cells assessed as cell growth at 10^-7 M after 24 hrs by SRB assay; details: read-out: Activity
[6] = Cytotoxicity against human SF268 cells assessed as cell growth at 10^-4 M after 24 hrs by SRB assay; details: SF-268, 24 h, read-out: Activity
A498 = experiment: Cytotoxicity against human A498 cells assessed as cell growth at 10^-7 M after 24 hrs by SRB assay; details: A498, 24 h, read-out: Activity
[7] = Cytotoxicity against human BT549 cells after 24 hrs by SRB assay; details: BT-549, 24 h
NCI-H460 = experiment: Cytotoxicity against human NCI-H460 cells assessed as cell growth at 10^-6 M after 24 hrs by SRB assay; details: NCI-H460, 24 h, read-out: Activity
[8] = Cytotoxicity against human SF295 cells assessed as cell growth at 10^-5 M after 24 hrs by SRB assay; details: SF-295, 24 h, read-out: Activity
[9] = Cytotoxicity against human HOP62 cells assessed as cell growth at 10^-7 M after 24 hrs by SRB assay; details: HOP-62, 24 h, read-out: Activity
[10] = Cytotoxicity against human COLO205 cells assessed as cell growth at 10^-6 M after 24 hrs by SRB assay; details: COLO 205, 24 h, read-out: Activity
[11] = Cytotoxicity against human HCT116 cells after 24 hrs by SRB assay; details: HCT-116, 24 h
MDA-MB-231 = experiment: Cytotoxicity against human MDA-MB-231 cells assessed as cell growth at 10^-6 M after 24 hrs by SRB assay; details: MDA-MB-231, 24 h, read-out: Activity
SK-MEL-5 [12] = experiment: Cytotoxicity against human SK-MEL-5 cells assessed as cell growth at 10^-5 M after 24 hrs by SRB assay; details: SK-MEL-5, 24 h, read-out: Activity
[13] = Cytotoxicity against human UACC62 cells assessed as cell growth at 10^-6 M after 24 hrs by SRB assay; details: UACC-62, 24 h, read-out: Activity
[14] = Cytotoxicity against human SNB19 cells assessed as cell growth at 10^-5 M after 24 hrs by SRB assay; details: SNB-19, 24 h, read-out: Activity
[15] = Cytotoxicity against human SNB19 cells after 24 hrs by SRB assay; details: SNB-19, 24 h
T47D [16] = experiment: Cytotoxicity against human T47D cells after 24 hrs by SRB assay
[17] = Cytotoxicity against human OVCAR3 cells assessed as cell growth at 10^-7 M after 24 hrs by SRB assay; details: OVCAR-3, 24 h, read-out: Activity
NCI-H23 = experiment: Cytotoxicity against human NCI-H23 cells assessed as cell growth at 10^-5 M after 24 hrs by SRB assay; details: NCI-H23, 24 h, read-out: Activity
[18] = Cytotoxicity against human LOXIMVI cells assessed as cell growth at 10^-7 M after 24 hrs by SRB assay; details: LOX IMVI, read-out: Activity
[19] = Cytotoxicity against human HL-60(TB) cells assessed as cell growth at 10^-4 M after 24 hrs by SRB assay; details: HL-60, 24 h, read-out: Activity
[20] = Cytotoxicity against human OVCAR4 cells assessed as cell growth at 10^-4 M after 24 hrs by SRB assay; details: OVCAR-4, 24 h, read-out: Activity
SK-MEL-5 [21] = experiment: Cytotoxicity against human SK-MEL-5 cells assessed as cell growth at 10^-7 M after 24 hrs by SRB assay; details: SK-MEL-5, 24 h, read-out: Activity
SN12C = experiment: Cytotoxicity against human SN12C cells assessed as cell growth at 10^-7 M after 24 hrs by SRB assay; details: read-out: Activity
KM12 = experiment: Cytotoxicity against human KM12 cells assessed as cell growth at 10^-6 M after 24 hrs by SRB assay; details: KM12, 24 h, read-out: Activity
[22] = Cytotoxicity against human SF539 cells assessed as cell growth at 10^-5 M after 24 hrs by SRB assay; details: SF-539, 24 h, read-out: Activity
[23] = Cytotoxicity against human HOP92 cells assessed as cell growth at 10^-8 M after 24 hrs by SRB assay; details: HOP-92, 24 h, read-out: Activity
[24] = Cytotoxicity against human HCT15 cells assessed as cell growth at 10^-7 M after 24 hrs by SRB assay; details: HCT-15, 24 h, read-out: Activity
[25] = Cytotoxicity against human OVCAR3 cells assessed as cell growth at 10^-4 M after 24 hrs by SRB assay; details: OVCAR-3, 24 h, read-out: Activity
[26] = read-out: LC50 (the source's name)
[27] = read-out: pLC50 (the source's name) (converted)

Structure (SMILES): O=C(Nc1cc(-c2cccnc2)nc(NCCCN2CCOCC2)n1)c1cc(Br)cc(C(F)(F)F)c1
- GI50 (HT-29; read-out: GI50): 2.12 µM
- CC50 (HT-29; [26]): 16.1 µM
- TGI (HT-29; read-out: TGI): 4.95 µM
- GI50 (HT-29; read-out: pGI50 (converted)): 2.14 µM
- CC50 (HT-29; [27]): 16.2 µM
- TGI (HT-29; read-out: pTGI (converted)): 4.9 µM
- growth at 10 µM [1]: 40%
- growth at 10 µM (NCI-H226): 49%
- growth at 0.01 µM (T47D [2]): 91%
- growth at 1 µM [3]: 92%
- growth at 100 µM (CCRF-CEM): -52%
- growth at 0.01 µM [4]: 88%
- growth at 0.01 µM [5]: 93%
- growth at 0.1 µM (Malme-3M): 95%
- growth at 100 µM [6]: -88%
- growth at 0.1 µM (A498): 92%
- GI50 ([7]; read-out: GI50): 3.27 µM
- CC50 [7, 26]: 45 µM
- TGI ([7]; read-out: TGI): 15 µM
- GI50 ([7]; read-out: pGI50 (converted)): 3.24 µM
- CC50 [7, 27]: 44.7 µM
- TGI ([7]; read-out: pTGI (converted)): 15.1 µM
- growth at 1 µM (NCI-H460): 99%
- growth at 10 µM [8]: -66%
- growth at 0.1 µM [9]: 85%
- growth at 1 µM [10]: 92%
- GI50 ([11]; read-out: GI50): 2.09 µM
- CC50 [11, 26]: 13.7 µM
- TGI ([11]; read-out: TGI): 4.81 µM
- GI50 ([11]; read-out: pGI50 (converted)): 2.09 µM
- CC50 [11, 27]: 13.8 µM
- TGI ([11]; read-out: pTGI (converted)): 4.79 µM
- growth at 1 µM (MDA-MB-231): 87%
- growth at 10 µM (SK-MEL-5 [12]): -98%
- growth at 1 µM [13]: 90%
- growth at 10 µM [14]: -33%
- GI50 ([15]; read-out: GI50): 2.5 µM
- CC50 [15, 26]: 21.5 µM
- TGI ([15]; read-out: TGI): 5.75 µM
- GI50 ([15]; read-out: pGI50 (converted)): 2.51 µM
- CC50 [15, 27]: 21.4 µM
- TGI ([15]; read-out: pTGI (converted)): 5.75 µM
- GI50 (T47D [16]; read-out: GI50): 3.72 µM
- CC50 (T47D [16]; [26]): 48.5 µM
- TGI (T47D [16]; read-out: TGI): 16.1 µM
- GI50 (T47D [16]; read-out: pGI50 (converted)): 3.72 µM
- CC50 (T47D [16]; [27]): 49 µM
- TGI (T47D [16]; read-out: pTGI (converted)): 16.2 µM
- growth at 0.1 µM [17]: 102%
- growth at 10 µM (NCI-H23): 18%
- growth at 0.1 µM [18]: 92%
- growth at 100 µM [19]: -51%
- growth at 100 µM [20]: -95%
- growth at 0.1 µM (SK-MEL-5 [21]): 95%
- growth at 0.1 µM (SN12C): 98%
- growth at 1 µM (KM12): 96%
- growth at 10 µM [22]: -73%
- growth at 0.01 µM [23]: 80%
- growth at 0.1 µM [24]: 92%
- growth at 100 µM [25]: -100%
